Results from ChEMBL document CHEMBL1201862, “PubChem BioAssay data set” (2004).
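Dose response: 5 concentrations. Exposure: 48 h. Format: 96-well plates. Endpoint: linear interpolation; highest concentration if not reached. At the GI50, growth is halved.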 Activity calls are given as the source filed them. Cut-off read from the data, not from the text of the source: active = GI50 up to about 1.1 µM and inactive = higher.

Experiments:
Assay in all cases: inhibition of tumour cell growth, NCI panel, 48 h
[1] = system: U-251
[2] = system: NCI-H460
[3] = system: DMS-114
[4] = system: KM12
[5] = system: IGROV-1
[6] = system: SK-MEL-5
[7] = system: SF-539
[8] = system: NCI-H23
[9] = system: A549
[10] = system: UACC-62
[11] = system: SW-620
[12] = system: HCT-116
[13] = system: TK-10
[14] = system: HOP-92
[15] = system: SF-295
[16] = system: MOLT-4
[17] = system: OVCAR-3
[18] = system: OVCAR-8
[19] = system: KM-20L2
[20] = system: OVCAR-4
[21] = system: SK-OV-3
[22] = system: 786-0
[23] = system: LXFL 529
[24] = system: SR
[25] = system: M14
[26] = system: SK-MEL-2
[27] = system: CAKI-1
[28] = system: RXF 393
[29] = system: UO-31
[30] = system: SNB-19
[31] = system: DLD-1
[32] = system: HOP-18
[33] = system: SN12C
[34] = system: SNB-75
[35] = system: HT-29
[36] = system: SNB-78
[37] = system: RPMI-8226
[38] = system: CCRF-CEM
[39] = system: HOP-62
[40] = system: NCI-H226
[41] = system: DMS-273
[42] = system: Malme-3M
[43] = system: EKVX
[44] = system: A498
[45] = system: M19-MEL
[46] = system: SF-268
[47] = system: XF498
[48] = system: ACHN
[49] = system: RXF 631
[50] = system: HCC 2998
[51] = system: HCT-15
[52] = system: HL-60
[53] = system: COLO 205
[54] = system: UACC-257
[55] = system: K562
[56] = system: OVCAR-5
[57] = system: NCI-H522
[58] = system: SK-MEL-28
[59] = system: LOX IMVI

Measured: GI50

N#CN1CC[C@@H]2CC3(CCC2C1)OCCO3 (stereo partly drawn)
inactive: [1] > 100 µM | [2] > 100 µM | [3] > 100 µM | [4] > 100 µM | [5] > 100 µM | [6] > 100 µM | [7] > 100 µM | [8] > 100 µM | [9] > 100 µM | [10] > 100 µM | [11] > 100 µM | [12] > 100 µM | [13] > 100 µM | [14] > 100 µM | [15] > 100 µM | [16] > 100 µM | [17] > 100 µM | [18] > 100 µM | [19] > 100 µM | [20] > 100 µM | [21] > 100 µM | [22] > 100 µM | [23] > 100 µM | [24] > 100 µM | [25] > 100 µM | [26] > 100 µM | [27] > 100 µM | [28] > 100 µM | [29] > 100 µM | [30] > 100 µM | [31] > 100 µM | [32] > 100 µM | [33] > 100 µM | [34] > 100 µM | [35] > 100 µM | [36] > 100 µM | [37] > 100 µM | [38] > 100 µM | [39] > 100 µM | [40] > 100 µM | [41] > 100 µM | [42] > 100 µM | [43] > 100 µM | [44] > 100 µM | [45] > 100 µM | [46] > 100 µM | [47] > 100 µM | [48] > 100 µM | [49] > 100 µM | [50] > 100 µM | [52] > 100 µM | [53] > 100 µM | [54] > 100 µM | [55] > 100 µM | [56] > 100 µM
active: [57] < 0.01 µM
> 100 µM: [51]

C/C=N\N1C(=O)c2ccccc2C1=O
> 100 µM: [51]
inactive: [2] > 100 µM | [3] > 100 µM | [4] > 100 µM | [5] > 100 µM | [6] > 100 µM | [7] > 100 µM | [8] > 100 µM | [9] > 100 µM | [10] > 100 µM | [11] > 100 µM | [12] > 100 µM | [13] > 100 µM | [14] > 100 µM | [15] > 100 µM | [16] > 100 µM | [17] > 100 µM | [18] > 100 µM | [19] > 100 µM | [20] > 100 µM | [22] > 100 µM | [23] > 100 µM | [24] > 100 µM | [25] > 100 µM | [26] > 100 µM | [27] > 100 µM | [28] > 100 µM | [29] > 100 µM | [30] > 100 µM | [31] > 100 µM | [32] > 100 µM | [33] > 100 µM | [34] > 100 µM | [35] > 100 µM | [36] > 100 µM | [37] > 100 µM | [38] > 100 µM | [58] > 100 µM | [39] > 100 µM | [40] > 100 µM | [41] > 100 µM | [42] > 100 µM | [43] > 100 µM | [44] > 100 µM | [45] > 100 µM | [46] > 100 µM | [59] > 100 µM | [47] > 100 µM | [48] > 100 µM | [49] > 100 µM | [50] > 100 µM | [52] > 100 µM | [54] > 100 µM | [55] > 100 µM | [56] > 100 µM

Cc1cccc(-c2cc(=O)c3cc(C)c(C)c(C(=O)O)c3o2)c1
> 100 µM: [51]
inactive: [1] > 100 µM | [2] > 100 µM | [3] > 100 µM | [4] > 100 µM | [5] > 100 µM | [6] > 100 µM | [7] > 100 µM | [8] > 100 µM | [9] > 100 µM | [10] > 100 µM | [11] > 100 µM | [12] > 100 µM | [13] > 100 µM | [14] > 100 µM | [15] > 100 µM | [16] > 100 µM | [17] > 100 µM | [18] > 100 µM | [19] > 100 µM | [20] > 100 µM | [21] > 100 µM | [22] > 100 µM | [23] > 100 µM | [24] > 100 µM | [25] > 100 µM | [26] > 100 µM | [27] > 100 µM | [29] > 100 µM | [30] > 100 µM | [31] > 100 µM | [32] > 100 µM | [33] > 100 µM | [34] > 100 µM | [35] > 100 µM | [36] > 100 µM | [37] > 100 µM | [38] > 100 µM | [58] > 100 µM | [39] > 100 µM | [40] > 100 µM | [41] > 100 µM | [42] > 100 µM | [43] > 100 µM | [45] > 100 µM | [59] > 100 µM | [47] > 100 µM | [48] > 100 µM | [49] > 100 µM | [50] > 100 µM | [52] > 100 µM | [53] > 100 µM | [54] > 100 µM | [55] > 100 µM | [56] > 100 µM | [57] > 100 µM
